Experimental data from US6410516B1.

What was measured:
NF-κB = assay: GTP stimulation of NF-κB complex formation in the binding assay; assay type: biochemical; conditions: GTP 3 mM added to the binding assay; virus-induced extracts
endogenous β-IFN mRNA = assay: Northern blot, endogenous β-IFN mRNA in 70Z/3 cells; assay type: cell-based, mouse; conditions: PMA 50 ng/ml, LPS 15 μg/ml or Sendai virus, 0 to 20 hr
Description: (§1) FIG. 42C presents results of Northern blot analyses of 70Z/3 cells treated with various inducers.
(§2) RNA preparation and Northern blot analysis were carried out as previously described by Zinn et al., Cell, 34, 865-879 (1983).

NF-KB in 70Z/3 cells = assay: TPA stimulation, subcellular fractions of 70Z/3 cells (mobility shift assay); assay type: cell-based, mouse; conditions: TPA-stimulated cells; fractions treated with formamide and DOC; densitometric scanning
Description: Nuclear extracts, cytosolic and postnuclear membrane fractions were analyzed at equal amounts of protein in an electrophoretic mobility shift assay, described in Example 1, followed by fluorography.
To examine whether the form of NF-kB detected after in vitro activation in the cytosolic fraction could quantitatively account for the NF-kB found in nuclear extracts after TPA stimulation of cells, subcellular fractions of 70Z/3 cells were reinvestigated in mobility shift assays after treatment with formamide and DOC using equal cell-equivalents of subcellular fractions. Equal cell-equivalents of nuclear extracts (N) and cytosolic (C) and post-nuclear membrane fractions (P) from control (Co) and TPA-stimulated cells (TPA) were left untreated (lanes 1-6 and 13-18) or subjected to a formamide/desoxycholate treatment (Fa+DOC; lanes 7-12 and 19-24; for conditions see FIG. 31, lane 11). This treatment was preferred over the DOC/NP-40 chase treatment because it gave a higher resolution of bands in mobility shift assays. DNA-binding reactions were performed in the presence of 3.2 ug poly(d[I-C]) using 4.4 ug of protein from nuclear extracts, 8.8 ug of protein from cytosolic fractions or 2.2 ug of protein from postnuclear membrane fractions (all in 4 ul buffer D(+)). Fluorograms of native gels are shown. […]

endogenous κ gene = assay: Northern blot, endogenous κ gene expression in 70Z/3 cells; assay type: cell-based, mouse; conditions: PMA 50 ng/ml, LPS 15 μg/ml or Sendai virus, 0 to 20 hr
Description: as §1, §2

AP-1 in HeLa cells = assay: TPA stimulation, AP-1 DNA-binding activity in HeLa subcellular fractions; assay type: cell-based, human
Text: FIG. 28 represents analysis of subcellular fractions for DNA-binding activity of the TPA-inducible transcription factor AP-1. Equal cell-equivalents of nuclear extracts (N) and cytosolic fractions (C) from 70Z/3 and HeLa cells were used in mobility shift assays. AP-1 specific DNA-binding activity was detected using an end-labeled EcoRI-HindIII fragment from the yeast HIS 4 promoter containing three binding sites for GCN4 recognized by mammalian AP-1. The three protein-DNA complexes seen on shorter exposures of the fluorogram are indicated by filled arrowheads and the position of unbound DNA-fragment by an open arrowhead.

HeLa cells = conditions: anisomycin at 10; cited from earlier work
70Z/3 cells = conditions: 10 μg/mo cycloheximide; cited from earlier work

With `Nc1nc2c(ncn2[C@@H]2O[C@H](COP(=O)(O)OP(=O)(O)OP(=O)(O)O)[C@@H](O)[C@H]2O)c(=O)[nH]1` [GTP] the NF-κB complex formation (NF-κB) was “stimulated”.
In the case of `CCCCCCCCCCCCCC(=O)O[C@@H]1[C@@H](C)[C@@]2(O)[C@@H](C=C(CO)C[C@]3(O)C(=O)C(C)=C[C@@H]23)[C@@H]2C(C)(C)[C@]12OC(C)=O` [PMA, phorbol 12-myristate-13-acetate], the “endogenous β-IFN mRNA” value (endogenous β-IFN mRNA) is reported as “not”, the “kB-specific DNA-binding activity found in nuclear extracts” value (NF-KB in 70Z/3 cells) is reported as 80% and the “endogenous κ gene expression” value (endogenous κ gene) is reported as “activation of the endogenous κ gene”. The “AP-1 DNA-binding activity in nuclear extracts after TPA-stimulation” value (AP-1 in HeLa cells) was “did not show an increase”.
For `COc1ccc(C[C@H]2NC[C@H](O)[C@H]2OC(C)=O)cc1` [anisomycin], the “inhibition of protein synthesis” value (HeLa cells) is listed as “approximately 99%”.
In the case of `C[C@@H]1C[C@@H]([C@H](O)CC2CC(=O)NC(=O)C2)C(=O)[C@@H](C)C1` [cycloheximide], the “inhibition of protein synthesis” value (70Z/3 cells) is listed as “greater than 95%”.
